Measurements reported in patent US5141627A, “Chelators whose affinity for calcium ion is increased by illumination” (The Regents of the University of California, priority 1989, dated 1992).
pKd: −log10 of the molar value.

How the values were obtained:
cells = test: Effect in cells of microinjected chelator on Ca2+ after photolysis; type: cell-based; conditions: microinjected into cells
[1] = Chemical stability in aqueous base or acid; type: physicochemical
Description: Diazo-2 tetramethyl ester, Compound 3J, was saponified to the tetra-anion by dissolution in methanol (gentle heat), addition of an excess of aqueous 1M potassium hydroxide solution and keeping at room temperature several hours, preferably overnight. […] The purity of diazo-2 solutions can be determined by measuring the extent of absorbance change on complete photolysis (FIG. 1B) as contaminants contribute absorbance at 355 nm. Diazo-1, -3, and -4 esters were saponified analogously.

[2] = Quantum efficiency and completion of photolysis; type: physicochemical; conditions: for Φ quantum efficiency of photolysis, free: zero [Ca2+]
Experimental: Spectra were obtained after 0, 2, 5, 9, 16, 28, 46, 80, 150, 285, 505 and 903 sec of 365-nm illumination at 7.82×10^- 9 einsteins cm^-2 s^-1 from Spectroline lamp. For clarity only the 0-, 9-, 28-, 46-, 80-, 150-, and 505-s spectra are reproduced herein. The 505- and 903-s spectra were identical, confirming completion of photolysis after those times. Solutions were at 22±2° C.
The method was as described in FIG. 1B except that the EGTA was replaced by 2 mM CaCl2, and spectra were measured after 0-, 50-, 100-, 203-, 412-, 840-, 1730-, 4080-, and 8000-s illumination. The last two spectra were identical, confirming completion. For clarity the 50- and 8000-s spectra are omitted.
The photolysis quantum efficiencies of diazo chelators were determined by alternately irradiating a buffered solution of the substrate with a known intensity of longwave UV light, and measuring the absorbance spectrum, in apparatus described by S. R. Adams, et al. (1988), supra.

[3] = Ca2+ affinity by UV spectra during titration of EGTA or HEEDTA buffers; type: binding; conditions: after photolysis; 0.25M ionic strength (0.2M KCl, 0.05M NaCl), 18° C.
[4] = Covalent modification of lysine by photochemical intermediates (HPLC); conditions: pH 7.2
Experimental: To study the extent to which biological substrates are covalently modified by reactive intermediates generated by the photolysis of the diazoketones,100 μM diazo-3 in the presence of 10 mM phosphate and either 100 mM KCl or 100 mM lysine.HCl, at pH 7.2 was photolyzed. The photolysates were analyzed by HPLC (Waters Associates, Inc., Milford, Mass.; C-18 column, Supelco, Inc., Bellefonte, Pa.), with 10 mM KH2 PO4 /K2 HPO4 buffer at pH 7.2 as eluting solvent. The absorbance of the eluate at 254 nm was monitored. Before being injected onto the column, concentrated stock solutions of either KCl or lysine.HCl were added to the photolysate to insure that the electrolyte composition of the injected samples were identical. Thus, 10 μL of 1M KCl were added to 100 μL of the samples of diazo-3 photolyzed in lysine.HCl, while 10 μL of 1M lysine.HCl were added to 100 μL of the sample of diazo-3 photolyzed in KCl.

## Cc1ccc(N(CC(=O)O)CC(=O)O)c(OCCOc2cc(C(=O)C=[N+]=[N-])ccc2N(CC(=O)O)CC(=O)O)c1 [diazo-2, 1-(2-bis(carboxymethyl)amino-5-methyl) phenoxy-2-(2-bis(carboxymethyl)amino-5-(diazoacetyl)phenoxy) ethane]
cells
  sequestering Ca2+ after photolysis (in words): effective in sequestering Ca^2+ after photolysis
[1]; from dilute aqueous base, concentrated to a solid
  stability on concentration to a solid (in words): decomposes and becomes light-insensitive
[1]; methanol/aqueous KOH, room temperature, several hours to overnight
  stability in dilute aqueous base (in words): stable
[1]; pH>13 or pH<4
  stability in strong aqueous base or acid (in words): unstable
[2]; 365 nm
  quantum yield of photolysis: 0.030
[2]; 365 nm, 7.82×10^-9 einsteins cm^-2 s^-1, absence of Ca2+, 8 μM
  illumination time to completion of photolysis, free: ≤ 505 s
[2]; saturating [Ca2+]
  Φ quantum efficiency of photolysis, +Ca2+: 0.030
[2]
  Φ quantum efficiency of photolysis, free: 0.057
[3]
  pKd: 6.82

## COc1cc(C(=O)C=[N+]=[N-])ccc1N(CC(=O)O)CC(=O)O [diazo-3, 2-methoxy-4-(diazoacetyl)aniline-N, N-diacetic acid]
[2]
  Φ quantum efficiency of photolysis, free: 0.048
[4]; 100 μM diazo-3, 200 mM lysine.HCl (so in the source)
  covalently modified lysines: 6 lysines in 10^5
[4]; 100 μM diazo-3 photolyzed in 100 mM lysine.HCl
  frequency of covalent lysine modification: about 6×10^-5
[4]; 100 μM diazo-3 photolyzed in 100 mM lysine.HCl, % of total absorbance
  absorbance under new (lysine-modified) peak: about 6%
[4]; 100 μM diazo-3 photolyzed in 100 mM lysine.HCl, calculated
  modified lysine produced: about 6 μM
